Assay results from US9334280B2, “Synthetic rigidin analogues as anticancer agents, salts, solvates and prodrugs thereof, and method of producing same” (New Mexico Technical Research Foundation, priority 2012, dated 2016).
Like-named read-outs stand apart in the source and are kept apart here.

Columns and labels:
[1] = tested on: A549 non-small-cell lung cancer cells; test: MTT antiproliferative assay, A549; type: cell-based; settings: Homo sapiens
Description: (§1) To evaluate antiproliferative properties of the compounds of Formula I, mitochondrial dehydrogenase activities were measured using the MTT assay. The cell lines were prepared by trypsinizing and seeding […] cells per well into microplates. All compounds were reconstituted in dimethyl sulfoxide (DMSO) at a concentration of either 100 mM or 25 mM prior to treatment. The cells were grown for 24 hrs before treatment at concentrations ranging from 0.004 to 100 microM and incubated for 48 hrs in 200 microL media. 20 microL of MTT reagent in serum free medium (5 mg/mL) was added to each well and incubated further for 2 hrs. Media was removed and the resulting formazan crystals were re-solubilized in 100 microL of DMSO and the optical density (OD) was measured using a Thermomax Molecular Device plate reader at a wavelength of 490 nm. The experiments were performed in quadruplicate and repeated at least twice for each compound per cell line. Cells treated with 0.1% DMSO were used as a negative control, while phenyl arsine oxide (PAO) was used as a positive killing control.
(§2) Human cancer cell lines were obtained from the American Type Culture Collection (ATCC, Manassas, Va., USA), the European Collection of Cell Culture (ECACC, Salisbury, UK) and the Deutsche Sammlung von Mikroorganismen and Zellkulturen (DSMZ, Braunschweig, Germany). Human cervical adenocarcinoma HeLa cells were cultured in DMEM supplemented with 10% fetal bovine serum (FBS). Human mammary carcinoma MCF-7 cells were cultured in RPMI supplemented with 10% FBS. The U87 and U373 cells were cultured in DMEM culture medium (Lonza code 12-136F, Vervier, Belgium), while the SKMEL-28 and A549 cells were cultured in RPMI culture medium (Lonza; code 12-115F) supplemented with 10% heat-inactivated FBS (Lonza, FBS South America code DE14-801F). […] All cell lines were cultured in T25 flasks, maintained and grown at 37° C., 95% humidity, 5% CO2.
(§3) To evaluate antiproliferative properties of the synthesized compounds, the MTT assay was used. The cell lines were assessed by trypsinizing each cell line and seeding 4×10^3 cells per well into 96-well plates. All compounds were dissolved in DMSO at a concentration of either 100 mM or 50 mM prior to cell treatment. The cells were grown for 24 h and then treated with compounds at concentrations ranging from 0.04 to 100 μM and incubated for 48 h in 200 μL media. 20 μL of MTT reagent in serum free medium (5 mg/mL) was added to each well and incubated further for 2 h. Media was removed, and the resulting formazan crystals were re-solubilized in 200 μL of DMSO. A490 was measured using a Thermomax Molecular Device plate reader. The experiments were performed in quadruplicate and repeated at least twice for each compound per cell line. Cells treated with 0.1% DMSO were used as a control, and 1 μM phenyl arsine oxide (PAO) was used as a positive killing control.

[2] = tested on: MES-SA/Dx5 uterine sarcoma cells (overexpress p-gp); test: MTT antiproliferative assay, MDR MES-SA/Dx5; type: cell-based, human
Description: (§4) Human T-cell leukemia cell line Jurkat (ATCC TIB-152, E6-1 clone) was cultured in RPMI-1640 (Invitrogen) supplemented with 10% FBS (Invitrogen), 100 mg/L penicillin G, 100 mg/L streptomycin, 1.0 mM sodium pyruvate, 1.5 g/L sodium bicarbonate, and 4.5 g/L glucose (all from Sigma). Human cervical cancer cell line HeLa (ATCC S3) was cultured in DMEM (Invitrogen) supplemented with 10% FBS, 100 mg/L penicillin G, and 100 mg/L streptomycin. MCF-7 (human mammary carcinoma) cells were cultured in DMEM supplemented with 1.0 mM sodium pyruvate, 1% GlutaMax™-1 (Invitrogen), 100 μg/mL penicillin, 100 μg/mL streptomycin, and 10% FBS. Human uterine sarcoma MES-SA and MES-SA/Dx5 cells were cultured in RPMI-1640 medium supplemented with 10% FBS, 100 mg/L penicillin G and 100 mg/L streptomycin. All cells were incubated at 37° C. in a humidified atmosphere with 5% CO2. The other cell lines were maintained in a similar fashion as previously described.
as §1
The cells of such tumors are referred to as multidrug resistant (MDR). Thus, we assessed the compounds of Formula I for antiproliferative activity in an MDR cancer cell line. This was done using the uterine sarcoma cells, MES-SA/Dx5, which overexpress p-gp. The parental drug-responsive MES-SA cell line was used as control.

[3] = tested on: MCF-7 mammary gland adenocarcinoma cells; test: MTT antiproliferative assay, MCF-7; type: cell-based; settings: Homo sapiens, MCF7, MTT, ± SD, read-out: GI50 in vitro Values, MCF-7
Description: as §4, §1, §2, §3

[4] = tested on: U373 glioblastoma cells; test: MTT antiproliferative assay, U373; type: cell-based, human; settings: U373 MG
Description: as §1, §2
as §3, with “Cells treated with 0.1% DMSO were used as a control, and 1 μM phenyl arsine oxide (PAO) was used as a positive killing control.” left out

[5] = tested on: SW620 colon cancer cells; test: MTT antiproliferative assay, SW620; type: cell-based; settings: Homo sapiens, SW-620, Table 1A, 48 h, read-out: Concentration required to reduce the viability of cells by 50%, SW620
Description: as §1

[6] = tested on: GEO colon cancer cells; test: MTT antiproliferative assay, GEO; type: cell-based; settings: Table 1A, 48 h, read-out: Concentration required to reduce the viability of cells by 50%, GEO
Description: as §1

[7] = tested on: HeLa cervical adenocarcinoma cells; test: MTT antiproliferative assay, HeLa; type: cell-based; settings: Homo sapiens, MTT, ± SD, read-out: GI50 in vitro Values, HeLa
Description: as §4, §1, §2, §3

[8] = tested on: MES-SA uterine sarcoma cells; test: MTT antiproliferative assay, MES-SA; type: cell-based; settings: Homo sapiens, Table 3, parental drug-responsive cell line, read-out: GI50 in vitro Values, MES-SA
Description: as §4, with “The other cell lines were maintained in a similar fashion as previously described.” left out
To evaluate antiproliferative properties of the compounds of Formula I, mitochondrial dehydrogenase activities were measured using the MTT assay. […] Media was removed and the resulting formazan crystals were re-solubilized in 100 microL of DMSO and the optical density (OD) was measured using a Thermomax Molecular Device plate reader at a wavelength of 490 nm. […]
The cells of such tumors are referred to as multidrug resistant (MDR). Thus, we assessed the compounds of Formula I for antiproliferative activity in an MDR cancer cell line. […]

[9] = tested on: HCT8 colon cancer cells; test: MTT antiproliferative assay, HCT8; type: cell-based; settings: Homo sapiens, HCT-8, Table 1A, 48 h, read-out: Concentration required to reduce the viability of cells by 50%, HCT8
Description: as §1

[10] = tested on: B16F10 melanoma cells; test: MTT antiproliferative assay, B16F10; type: cell-based; settings: Mus musculus, B16-F10, Table 2, 48 h, read-out: GI50 in vitro values, B16F10
Description: as §1

[11] = tested on: SW480 colon cancer cells; test: MTT antiproliferative assay, SW480; type: cell-based; settings: Homo sapiens, Table 1A, 48 h, read-out: Concentration required to reduce the viability of cells by 50%, SW480
Description: as §1

[12] = tested on: Hs683 anaplastic oligodendroglioma cells; test: MTT antiproliferative assay, Hs683; type: cell-based; settings: Homo sapiens, Hs 683, Table 2, 48 h, read-out: GI50 in vitro values, Hs683
Description: as §1

[13] = tested on: SKMEL-28 melanoma cells; test: MTT antiproliferative assay, SKMEL-28; type: cell-based, human; settings: SK-MEL-28
Description: as §1, §2
as §3, with “Cells treated with 0.1% DMSO were used as a control, and 1 μM phenyl arsine oxide (PAO) was used as a positive killing control.” left out

[14] = tested on: UM-SCC10A head and neck cancer cells; test: MTT antiproliferative assay, UM-SCC10A; type: cell-based; settings: UMSCC-10A, Table 1A, 48 h, read-out: Concentration required to reduce the viability of cells by 50%, UM-SCC10A
Description: as §1

[15] = tested on: UM-SCC10B head and neck metastases cells; test: MTT antiproliferative assay, UM-SCC10B; type: cell-based; settings: Table 1A, 48 h, read-out: Concentration required to reduce the viability of cells by 50%, UM-SCC10B
Description: as §1

[16] = tested on: UM-SCC22B head and neck metastases cells; test: MTT antiproliferative assay, UM-SCC22B; type: cell-based; settings: Homo sapiens, UMSCC22B, Table 1A, 48 h, read-out: Concentration required to reduce the viability of cells by 50%, UM-SCC22B
Description: as §1

[17] = tested on: UM-SCC22A head and neck cancer cells; test: MTT antiproliferative assay, UM-SCC22A; type: cell-based; settings: Table 1A, 48 h, read-out: Concentration required to reduce the viability of cells by 50%, UM-SCC22A
Description: as §1

[18] = tested on: HeLa, MCF-7, U-87 and A549 cells; test: MTT antiproliferative activity, statements for four-cell-line panel; type: cell-based, human; settings: MCF-7, U-87, A549, 48 h
Description: The antiproliferative effects of compounds 13 and 18-23 were studied in a more challenging cell line panel that, in addition to the previously utilized HeLa and MCF-7, contained in vitro models for cancers known to be associated with poor prognoses, such as the U-87 human glioblastoma and A549 human non-small-cell lung (NSCLC) carcinoma.
as §3

[19] = tested on: U-87 glioblastoma cells; test: MTT antiproliferative assay, U-87; type: cell-based; settings: Homo sapiens, Table 6, 48 h, ± SD, read-out: GI50 in vitro Values, U-87
Description: as §2, §3

[20] = tested on: SKMEL melanoma cells; test: Quantitative videomicroscopy, SKMEL; type: cell-based, human; settings: at MTT-based GI50 value
Description: (§5) Poor prognoses of glioblastoma, melanoma and NSCLC patients are generally attributed to the drug resistant nature of these malignanciesand therefore it was encouraging that 7-deazahypoxanthines 13 and 18-23 were active against the U87 human glioblastoma and A549 NSCLC carcinoma cell lines. Since tubulin-targeting agents are generally poorly effective against cancer cells resistant to the induction of apoptosis, compound 22 was further evaluated against U373 human glioblastoma and SKMEL human melanoma cells, reported to display apoptosis resistance. […] Computer-assisted phase-contrast microscopy (quantitative videomicroscopy) was utilized to confirm cell death as the principal mechanism of action associated with this compound's in vitro growth inhibitory effects in these cell lines.
(§6) The effects of 22 on the viability of human U373 glioblastoma and SKMEL melanoma cells were characterized in vitro using computer-assisted phase contrast video microscopy, as described elsewhere.

[21] = tested on: U373 glioblastoma cells; test: Quantitative videomicroscopy, U373; type: cell-based, human; settings: U373, at MTT-based GI50 value
Description: as §5, §6

[22] = Table 2, 48 h, read-out: GI50 in vitro values, A549
[23] = Homo sapiens, Table 2, 48 h, MTT, read-out: GI50 in vitro values, U373
[24] = Homo sapiens, Table 2, 48 h, MTT, read-out: GI50 in vitro values, SKMEL-28
[25] = Table 6, 48 h, ± SD, read-out: GI50 in vitro Values, A549

GI50 [1, 22] [nM]	GI50 ([3]; Table 1, 48 h treatment) [nM]	GI50 [4, 23] [nM]	GI50 ([7]; Table 1, 48 h treatment) [nM]	GI50 [10] [nM]	GI50 [12] [nM]	GI50 [13, 24] [nM]	GI50 [1, 25] [nM]	GI50 ([3]; Table 6, 48 h) [nM]	GI50 [19] [nM]	GI50 ([7]; Table 6, 48 h) [nM]	Structure (SMILES)	also measured
20	40 ± 24	< 10	35 ± 7	10	10	< 10	–	–	–	–	O=C(c1ccccc1)c1[nH]c2[nH]cnc(=O)c2c1-c1ccccc1 [Rig35, 6-Benzoyl-5-phenyl-1H-pyrrolo[2,3-d]pyrimidin-4(7H)-one]	GI50 ([2]; Homo sapiens, MES-SA/Dx5, Table 3, MDR cell line, read-out: GI50 in vitro Values, MES-SA/Dx5): 70 ± 4 nM; variation in the sensitivities of the parental and MDR cell lines ([2]; MES-SA/Dx5 vs MES-SA, in words): only a small variation; IC50 [5]: < 1 nM; IC50 [6]: 8 nM; GI50 [8]: 30 ± 4 nM; IC50 [9]: < 1 nM; IC50 [11]: < 1 nM
20	87 ± 20	30	80 ± 25	40	20	20	–	–	–	–	O=C(c1ccccc1)c1[nH]c2[nH]cnc(=O)c2c1-c1cncc(Br)c1 [Rig9, 6-Benzoyl-5-(5-bromopyridin-3-yl)-1H-pyrrolo[2,3-d]pyrimidin-4(7H)-one]	IC50 [14]: 90 nM; IC50 [15]: 130 nM; IC50 [16]: 20 nM; IC50 [17]: 120 nM
–	–	–	–	–	–	–	12000 ± 1400	4700 ± 800	9230 ± 2130	3100 ± 100	Cc1nc(=O)c2c(-c3cccnc3)c(C(=O)c3ccccc3)[nH]c2[nH]1 [Compound 21, 6-Benzoyl-2-methyl-5-(pyridin-3-yl)-1H-pyrrolo[2,3-d]pyrimidin-4(7H)-one]	antiproliferative potencies (in words) [18]: single-digit micromolar potencies
–	–	–	–	–	–	–	1100 ± 400	610 ± 10	2400 ± 600	490 ± 50	Cc1nc(=O)c2c(-c3cncc(Br)c3)c(C(=O)c3ccccc3)[nH]c2[nH]1 [Compound 22, 6-Benzoyl-5-(5-bromopyridin-3-yl)-2-methyl-1H-pyrrolo[2,3-d]pyrimidin-4(7H)-one]	mechanism of growth inhibition by videomicroscopy (in words) [20]: inhibited cancer cell proliferation by inducing cell death; mechanism of growth inhibition by videomicroscopy (in words) [21]: inhibited cancer cell proliferation by inducing cell death; GI50 ([4]; apoptosis-resistant U373 human glioblastoma, read-out: MTT-based GI50 value, U373): 300 nM; GI50 ([13]; apoptosis-resistant SKMEL human melanoma, read-out: MTT-based GI50 value, SKMEL): 300 nM
